In patent US11992499B2, “Quinoline derivatives for use in the treatment of inflammation diseases” (ABIVAX, priority 2018, dated 2024):

Assays:
[1] = system: monocrotaline model of pulmonary arterial hypertension; test: Rat monocrotaline model of pulmonary arterial hypertension: mean pulmonary pressure; assay type: in vivo; conditions: for Effect on pulmonary pressure: pulmonary hypertension induced by monocrotaline; for Mean Pulmonary Pressure: MCT
Description: • 1. The experimental trace to be analyzed is opened in Clampfit. • 2. Right atria pressure is recorded for 1 minute • 3. PAP recorded continuously for at least 1 minute or until loss of signal, is used to extract the mean, diastolic, and systolic pulmonary pressure. • 4. The systemic arterial pressure (SAP) recorded continuously is used to extract the mean, diastolic and systolic arterial pressure. • 5. At the end of the hemodynamic parameters recording, the right and left ventricle including the septum and the lung lobes is excised to determine wet weights. • 6. Each parameter is compiled for each group and presented in bar graphs with appropriate statistical analysis.
The appropriate amount of monocrotaline is weighed and ⅓ of the correct volume of 1.0N HCl is added and mixed to ensure monocrotaline solubilisation. The solution is then neutralized with ⅓ of the correct volume of 1.0 N NaOH. The pH of the solution is checked with a pH indicator paper/strip or an electronic pH meter and adjusted to neutral as necessary; the final volume is completed with water for injection to obtain a solution of 20 mg/mL. The monocrotaline solution is injected subcutaneously, over the shoulders, into the loose skin over the neck, to each rat at 3 mL/kg of body weight (dose is 60 mg/kg).
Compound A was administered as a suspension in the vehicle. To reach the required concentrations, compound A was grounded to a fine powder, using a mortar and pestle, and then mixed with 20% (final volume) of vehicle A1 until a suspension was achieved. 80% of vehicle A2 was then added to the suspension under magnetic stirring.
The appropriate amount of Sildenafil is weighed and appropriate volume of distillated water is added to obtain suspension at 5 mg/mL. The suspension is mixed with a stir bar for 30-60 minutes until a homogenous suspension is achieved. Care is taken to maintain a uniform suspension (stirring continuously) whilst doses are being drawn up into gavage syringes. One gavage syringe is filled at a time and administered before filling the next syringe. The solutions are stored refrigerated at 2 to 8° C. and protected from light. The expiration date is set at 7 days after preparation.
Animals from Groups 2 to 5 (see Table 13) receive a single subcutaneous injection of monocrotaline (60 mg/kg) solution on Day 0 and returned to their cages. Animals from Group 1 receive one subcutaneous injection vehicle for MCT on Day 0 and returned to their respective cages.
Treatment with the compound A, sildenafil or vehicle is administered as of Day 7 (Groups 2-5) as scheduled and described in Table 13. The Groups 2-4 receive a single dose per day. The reference group 5 receives sildenafil twice a day. Food and water are given ad libitum. Daily observation of the behaviour and general health status of the animals is done. Weekly body weight is taken.
Surgical Instrumentation and Measurement of Hemodynamic and Functional Parameters in Efficacy Study Animals • 1. On the selected day of surgery, rats are anaesthetized with a mixture of 2 to 2.5% isoflurane USP (Abbot Laboratories, Montreal, Canada) in oxygen, and placed on a heating pad to maintain body temperature. • 2. Rats are tracheotomized and immediately ventilated by means of a positive-pressure rodent respirator set at ≈10 ml/kg bodyweight at a frequency of 65-70 strokes/min. • 3. Lead II ECG contact electrodes is placed on the rat to continuously monitor the ECG during the surgical procedure. • 4. A cannula connected to a pressure transducer is inserted into the left femoral artery to measure the arterial blood pressure. • 5. A cannula connected to a pressure transducer is inserted into the right atria through the right jugular vein to measure the right atria pressure. • 6. The heart is exposed through a sternotomy and a 20GA 1.16 in Insyte is introduced into the right ventricle and rapidly hooked up to a saline filled PE-50 catheter connected to a transducer. • 7. […]

[2] = system: STAM model of non-alcoholic steatohepatitis; test: STAM model of NASH: F4/80 immunostaining; assay type: in vivo, mice; conditions: for F4/80-positive area (mean ± SD): n = 8
Description: NASH was induced in 48 male mice by a single subcutaneous injection of 200 μg streptozotocin (STZ, Sigma-Aldrich, USA) solution 2 days after birth and feeding with high fat diet (HFD, 57 kcal % fat, Cat #HFD32, CLEA Japan, Inc., Japan) after 4 weeks of age.
Compound A was administered at 3 dose levels of 10, 20 and 40 mg/kg once daily from 6 to 9 weeks of age. Compound B was administered at a dose of 40 mg/kg once daily from 6 to 9 weeks of age. Telmisartan was administered at a dose of 10 mg/kg once daily from 6 to 9 weeks of age.

| SMILES | Effect on pulmonary pressure ([1]; female rat) | F4/80-positive area in the liver ([2]; summary statement, dose not stated) | Mean Pulmonary Pressure ([1]; female rat, 70 mg/kg QD gavage Day 7 to Day 28, n = 7) [mmHg] | Mean Pulmonary Pressure ([1]; female rat, 120 mg/kg QD gavage Day 7 to Day 28, n = 11) [mmHg] | Effect on pulmonary pressure ([1]; male rat) | F4/80-positive area (mean ± SD) ([2]; 10 mg/kg PO QD, 6-9 wks of age (Compound A low, Telmisartan groups)) [%] | F4/80-positive area compared with the Vehicle group ([2]; 20 mg/kg PO QD (Compound A middle group)) | F4/80-positive area (mean ± SD) ([2]; 20 mg/kg PO QD, 6-9 wks of age (Compound A middle group)) [%] | F4/80-positive area compared with the Vehicle group ([2]; 40 mg/kg PO QD (Compound A high, Compound B groups)) | F4/80-positive area (mean ± SD) ([2]; 40 mg/kg PO QD, 6-9 wks of age (Compound A high, Compound B groups)) [%] |
| --- | --- | --- | --- | --- | --- | --- | --- | --- | --- | --- |
| FC(F)(F)Oc1ccc(Nc2ccc3cccc(Cl)c3n2)cc1 [8-Chloro-N-(4-(trifluoromethoxy)phenyl)quinolin-2-amine] | reduces significantly | decreased |  |  |  |  |  |  |  |  |
| FC(F)(F)Oc1ccc(Nc2ccc3cccc(Cl)c3n2)cc1 [Compound A, 8-Chloro-N-(4-(trifluoromethoxy)phenyl)quinolin-2-amine] | reduces significantly |  | 22.2 | 16.9 | no effect | 2.22 ± 0.46 | tended to decrease | 1.88 ± 0.62 | significant decrease | 1.53 ± 0.77 |
